Source: PubChem BioAssay (NCI)
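Test compounds were applied to cells in 96-well plates for 48 hours at 5 doses. TGI denotes the concentration required for complete inhibition of growth.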

Tests used:
Experiment in all cases: inhibition of tumour cell growth, NCI panel, 48 h
MDA-MB-231 breast = tested on: MDA-MB-231 breast
CCRF-CEM leukemia = tested on: CCRF-CEM leukemia
SN12C renal = tested on: SN12C renal
SR leukemia = tested on: SR leukemia
A498 renal = tested on: A498 renal
HL-60(TB) leukemia = tested on: HL-60(TB) leukemia
UACC-257 melanoma = tested on: UACC-257 melanoma
RPMI-8226 leukemia = tested on: RPMI-8226 leukemia
MDA-N = tested on: MDA-N
RXF 393 renal = tested on: RXF 393 renal
HS 578T breast = tested on: HS 578T breast
SNB-75 CNS = tested on: SNB-75 CNS
SK-MEL-28 melanoma = tested on: SK-MEL-28 melanoma
A549 NSCLC = tested on: A549 NSCLC
HCT-116 colon = tested on: HCT-116 colon
SF-539 CNS = tested on: SF-539 CNS
NCI/ADR-RES ovarian = tested on: NCI/ADR-RES ovarian
IGROV1 ovarian = tested on: IGROV1 ovarian
OVCAR-8 ovarian = tested on: OVCAR-8 ovarian
KM12 colon = tested on: KM12 colon
786-0 renal = tested on: 786-0 renal
HOP-62 NSCLC = tested on: HOP-62 NSCLC
SW-620 colon = tested on: SW-620 colon
PC-3 prostate = tested on: PC-3 prostate
MCF7 breast = tested on: MCF7 breast
NCI-H522 lung = tested on: NCI-H522 lung
SK-MEL-2 melanoma = tested on: SK-MEL-2 melanoma
MDA-MB-435 = tested on: MDA-MB-435
M14 melanoma = tested on: M14 melanoma
T-47D breast = tested on: T-47D breast
HT29 colon = tested on: HT29 colon
UACC-62 melanoma = tested on: UACC-62 melanoma
HCC-2998 colon = tested on: HCC-2998 colon
SNB-19 CNS = tested on: SNB-19 CNS
SF-295 CNS = tested on: SF-295 CNS
HCT-15 colon = tested on: HCT-15 colon
NCI-H226 lung = tested on: NCI-H226 lung
MOLT-4 leukemia = tested on: MOLT-4 leukemia
TK-10 renal = tested on: TK-10 renal
DU-145 prostate = tested on: DU-145 prostate
LOX IMVI melanoma = tested on: LOX IMVI melanoma
OVCAR-4 ovarian = tested on: OVCAR-4 ovarian
ACHN renal = tested on: ACHN renal
OVCAR-3 ovarian = tested on: OVCAR-3 ovarian
CAKI-1 renal = tested on: CAKI-1 renal
MALME-3M melanoma = tested on: MALME-3M melanoma
NCI-H460 lung = tested on: NCI-H460 lung
NCI-H23 lung = tested on: NCI-H23 lung
HOP-92 NSCLC = tested on: HOP-92 NSCLC
SF-268 CNS = tested on: SF-268 CNS
UO-31 renal = tested on: UO-31 renal
BT-549 breast = tested on: BT-549 breast
SK-OV-3 ovarian = tested on: SK-OV-3 ovarian
U251 CNS = tested on: U251 CNS
EKVX NSCLC = tested on: EKVX NSCLC
OVCAR-5 ovarian = tested on: OVCAR-5 ovarian
SK-MEL-5 melanoma = tested on: SK-MEL-5 melanoma
COLO 205 colon = tested on: COLO 205 colon
K-562 leukemia = tested on: K-562 leukemia

With `CC(=O)N1C2=CCCC2(C)c2ccccc21` (centres undefined) the TGI (MDA-MB-231 breast) was > 100 µM, the TGI (CCRF-CEM leukemia) was > 100 µM and the TGI (SN12C renal) was > 100 µM. For the same compound, the TGI (SR leukemia) was > 100 µM, the TGI (A498 renal) was > 100 µM and the TGI (HL-60(TB) leukemia) was 83.6 µM. For the same compound, the TGI (UACC-257 melanoma) was > 100 µM, the TGI (RPMI-8226 leukemia) was 45.6 µM and the TGI (MDA-N) was > 100 µM. For the same compound, the TGI (RXF 393 renal) was > 100 µM, the TGI (HS 578T breast) was > 100 µM and the TGI (SNB-75 CNS) was > 100 µM. The TGI (SK-MEL-28 melanoma) was > 100 µM, the TGI (A549 NSCLC) was > 100 µM and the TGI (HCT-116 colon) was > 100 µM. The TGI (SF-539 CNS) was > 100 µM, the TGI (NCI/ADR-RES ovarian) was > 100 µM and the TGI (IGROV1 ovarian) was > 100 µM. The TGI (OVCAR-8 ovarian) was > 100 µM, the TGI (KM12 colon) was > 100 µM and the TGI (786-0 renal) was > 100 µM. For the same compound, the TGI (HOP-62 NSCLC) was > 100 µM, the TGI (SW-620 colon) was > 100 µM and the TGI (PC-3 prostate) was > 100 µM. The TGI (MCF7 breast) was > 100 µM, the TGI (NCI-H522 lung) was 94.8 µM and the TGI (SK-MEL-2 melanoma) was > 100 µM. For the same compound, the TGI (MDA-MB-435) was > 100 µM, the TGI (M14 melanoma) was > 100 µM and the TGI (T-47D breast) was > 100 µM. For the same compound, the TGI (HT29 colon) was > 100 µM, the TGI (UACC-62 melanoma) was > 100 µM and the TGI (HCC-2998 colon) was 99.7 µM. For the same compound, the TGI (SNB-19 CNS) was > 100 µM, the TGI (SF-295 CNS) was > 100 µM and the TGI (HCT-15 colon) was > 100 µM. For the same compound, the TGI (NCI-H226 lung) was > 100 µM, the TGI (MOLT-4 leukemia) was > 100 µM and the TGI (TK-10 renal) was > 100 µM. For the same compound, the TGI (DU-145 prostate) was > 100 µM, the TGI (LOX IMVI melanoma) was > 100 µM and the TGI (OVCAR-4 ovarian) was > 100 µM. For the same compound, the TGI (ACHN renal) was > 100 µM, the TGI (OVCAR-3 ovarian) was > 100 µM and the TGI (CAKI-1 renal) was > 100 µM. For the same compound, the TGI (MALME-3M melanoma) was > 100 µM, the TGI (NCI-H460 lung) was > 100 µM and the TGI (NCI-H23 lung) was > 100 µM. The TGI (HOP-92 NSCLC) was > 100 µM, the TGI (SF-268 CNS) was > 100 µM and the TGI (UO-31 renal) was > 100 µM. The TGI (BT-549 breast) was > 100 µM, the TGI (SK-OV-3 ovarian) was > 100 µM and the TGI (U251 CNS) was > 100 µM. For the same compound, the TGI (EKVX NSCLC) was > 100 µM, the TGI (OVCAR-5 ovarian) was > 100 µM and the TGI (SK-MEL-5 melanoma) was > 100 µM. The TGI (COLO 205 colon) was > 100 µM and the TGI (K-562 leukemia) was > 100 µM.
